{"source": "ChEMBL document CHEMBL3045748", "about": "“A novel and eco-friendly procedure for the synthesis of some pyrazolo-thiadiazolo-pyrimidinones and its in vitro anti-bacterial activity” (2012)", "format_in_all_cases": "functional", "conditions_in_all_cases": "read-out: DIZ", "key": {"Bacillus subtilis": {"tested_on": "Bacillus subtilis", "assay": "Antibacterial activity against Bacillus subtilis at 50 ug after 18 hr by Kirby-Bauer's disk diffusion assay"}, "Staphylococcus aureus": {"tested_on": "Staphylococcus aureus", "assay": "Antibacterial activity against Staphylococcus aureus at 50 ug after 18 hr by Kirby-Bauer's disk diffusion assay"}, "Escherichia coli": {"tested_on": "Escherichia coli", "assay": "Antibacterial activity against Escherichia coli at 50 ug after 18 hr by Kirby-Bauer's disk diffusion assay"}, "Klebsiella": {"tested_on": "Klebsiella", "assay": "Antibacterial activity against Klebsiella at 50 ug after 18 hr by Kirby-Bauer's disk diffusion assay"}}}
{"compound": "CCCCCCNCc1nn2c(=O)c3cnn(-c4ccccc4)c3nc2s1", "values": [{"measurement": "zone of inhibition at 50 µg/disc", "setting": "Bacillus subtilis", "result": 20.5, "unit": "mm"}, {"measurement": "zone of inhibition at 50 µg/disc", "setting": "Staphylococcus aureus", "result": 17.5, "unit": "mm"}, {"measurement": "zone of inhibition at 50 µg/disc", "setting": "Escherichia coli", "result": 11, "unit": "mm"}, {"measurement": "zone of inhibition at 50 µg/disc", "setting": "Klebsiella", "result": 11.5, "unit": "mm"}]}
{"compound": "Cc1cccc(NCc2nn3c(=O)c4cnn(-c5ccccc5)c4nc3s2)c1", "values": [{"measurement": "zone of inhibition at 50 µg/disc", "setting": "Bacillus subtilis", "result": 17, "unit": "mm"}, {"measurement": "zone of inhibition at 50 µg/disc", "setting": "Staphylococcus aureus", "result": 16.5, "unit": "mm"}, {"measurement": "zone of inhibition at 50 µg/disc", "setting": "Escherichia coli", "result": 9.5, "unit": "mm"}, {"measurement": "zone of inhibition at 50 µg/disc", "setting": "Klebsiella", "result": 12, "unit": "mm"}]}
{"compound": "CNCc1nn2c(=O)c3cnn(-c4ccccc4)c3nc2s1", "values": [{"measurement": "zone of inhibition at 50 µg/disc", "setting": "Bacillus subtilis", "result": 6.5, "unit": "mm"}, {"measurement": "zone of inhibition at 50 µg/disc", "setting": "Staphylococcus aureus", "result": 13.5, "unit": "mm"}, {"measurement": "zone of inhibition at 50 µg/disc", "setting": "Escherichia coli", "result": 11, "unit": "mm"}, {"measurement": "zone of inhibition at 50 µg/disc", "setting": "Klebsiella", "result": 11.5, "unit": "mm"}]}
{"compound": "O=c1c2cnn(-c3ccccc3)c2nc2sc(CNCc3ccco3)nn12", "values": [{"measurement": "zone of inhibition at 50 µg/disc", "setting": "Bacillus subtilis", "result": 18.5, "unit": "mm"}, {"measurement": "zone of inhibition at 50 µg/disc", "setting": "Staphylococcus aureus", "result": 20, "unit": "mm"}, {"measurement": "zone of inhibition at 50 µg/disc", "setting": "Escherichia coli", "result": 8.5, "unit": "mm"}, {"measurement": "zone of inhibition at 50 µg/disc", "setting": "Klebsiella", "result": 13, "unit": "mm"}]}
{"compound": "CCNCc1nn2c(=O)c3cnn(-c4ccccc4)c3nc2s1", "values": [{"measurement": "zone of inhibition at 50 µg/disc", "setting": "Bacillus subtilis", "result": 16, "unit": "mm"}, {"measurement": "zone of inhibition at 50 µg/disc", "setting": "Staphylococcus aureus", "result": 18.5, "unit": "mm"}, {"measurement": "zone of inhibition at 50 µg/disc", "setting": "Escherichia coli", "result": 10.5, "unit": "mm"}, {"measurement": "zone of inhibition at 50 µg/disc", "setting": "Klebsiella", "result": 12, "unit": "mm"}]}
{"compound": "O=c1c2cnn(-c3ccccc3)c2nc2sc(CN3CCOCC3)nn12", "values": [{"measurement": "zone of inhibition at 50 µg/disc", "setting": "Bacillus subtilis", "result": 7, "unit": "mm"}, {"measurement": "zone of inhibition at 50 µg/disc", "setting": "Staphylococcus aureus", "result": 7.5, "unit": "mm"}, {"measurement": "zone of inhibition at 50 µg/disc", "setting": "Escherichia coli", "result": 9, "unit": "mm"}, {"measurement": "zone of inhibition at 50 µg/disc", "setting": "Klebsiella", "result": 14.5, "unit": "mm"}]}
{"compound": "CC1(C)S[C@@H]2[C@H](NC(=O)[C@H](N)c3ccccc3)C(=O)N2[C@H]1C(=O)O", "note": "[AMPICILLIN]", "values": [{"measurement": "zone of inhibition at 50 µg/disc", "setting": "Bacillus subtilis", "result": 23.3, "unit": "mm"}, {"measurement": "zone of inhibition at 50 µg/disc", "setting": "Staphylococcus aureus", "result": 22.5, "unit": "mm"}, {"measurement": "zone of inhibition at 50 µg/disc", "setting": "Escherichia coli", "result": 18.5, "unit": "mm"}, {"measurement": "zone of inhibition at 50 µg/disc", "setting": "Klebsiella", "result": 24.5, "unit": "mm"}]}
{"compound": "O=c1c2cnn(-c3ccccc3)c2nc2sc(CNc3ccccc3)nn12", "values": [{"measurement": "zone of inhibition at 50 µg/disc", "setting": "Bacillus subtilis", "result": 14, "unit": "mm"}, {"measurement": "zone of inhibition at 50 µg/disc", "setting": "Staphylococcus aureus", "result": 14.5, "unit": "mm"}, {"measurement": "zone of inhibition at 50 µg/disc", "setting": "Escherichia coli", "result": 10.5, "unit": "mm"}, {"measurement": "zone of inhibition at 50 µg/disc", "setting": "Klebsiella", "result": 12.5, "unit": "mm"}]}
{"compound": "COc1ccc(NCc2nn3c(=O)c4cnn(-c5ccccc5)c4nc3s2)cc1", "values": [{"measurement": "zone of inhibition at 50 µg/disc", "setting": "Bacillus subtilis", "result": 15.5, "unit": "mm"}, {"measurement": "zone of inhibition at 50 µg/disc", "setting": "Staphylococcus aureus", "result": 15.5, "unit": "mm"}, {"measurement": "zone of inhibition at 50 µg/disc", "setting": "Escherichia coli", "result": 11.5, "unit": "mm"}, {"measurement": "zone of inhibition at 50 µg/disc", "setting": "Klebsiella", "result": 14, "unit": "mm"}]}
